Data as given in patent publication US7332480B2, “Compositions for the regulation of cytokine activity” (Yeda Research and Development Co. Ltd., priority 1992, dated 2008).

Legend:
[1] = system: secretion of active TNF-α by activated human CD4+ T cells; assay: Bioassay of TNF-α activity using human CD4+ T cells derived from PBLs (human PBL bioassay); type: cell-based; conditions: for Bioassay of TNF Activity: Table XXIII, conc range of 1 μg/ml-0.01 pg/ml, inconsistent = same result not obtained for all three bioassays; for “R” value: no effect, zero assigned
Description: Non adherent cells were eluted and washed.
Nophar, Y. et al. J. Immunol. (1988) 140 (10):3456-3460.

[2] = system: experimental DTH reaction in mice; assay: In vivo bioassay of inhibition of experimental DTH reactivity (oxazolone, ear swelling); set-up: key to effect on DTH (printed in the Dose column): “N.E.” indicates that no effect was observed at the tested dosage range of 0.000004-4 μg/gm mouse; conditions: for “R” value: no effect, zero assigned; for effect on DTH (printed in the Dose column): tested dosage range of 0.000004-4 μg/gm mouse s.c.; for effective dose range for inhibition ≧50% of control: Table XXIIIC footnotes, DTH, s.c., CD1 mice
Method: Groups of inbred BALB/c (Jackson Laboratories, Bar Harbor, Me.) or of outbred CD1 (Weizmann Institute Animal Breeding Center, Rehovot, Israel) mice are sensitized on the shaved abdominal skin with 100 μl of 2% oxazolone (OX) in acetone/olive oil (4/1, v/v) applied topically. DTH sensitivity is elicited 5 days later as follows: mice are challenged with 20 μl of 0.5% OX (10 μl administered topically to each side of the ear) in acetone/olive oil. A constant area of the ear is measured immediately before challenge and 24 and 48 h later with a Mitutoyo engineer's micrometer. The individual measuring ear swelling is blinded to the identity of the groups of mice. The increment (Δ) of ear swelling is expressed as the mean in units of 10^−2 mm or 10^−4 inch (+SE) depending on the micrometer that is used. Percent inhibition is calculated as follows: […]
Mice are treated with LMWH again Example 5.1, injected the day before primary sensitization to OX. On the fifth day after sensitization to OX, the 10 mice are challenged to induce a DTH reaction, as described above.
The positive control is the DTH reaction elicited in immunized mice in the absence of treatment with LMWH. The negative control is the background swelling produced by the antigen in naive (non-immunized) mice. […]
BALB/c mice (at least 5 mice per group) were sensitized on the shaved abdomen with 3% 4-ethoxymethylene-2-phenyl oxazolone (OX; BDH-Chemicals, GB) in acetone/olive oil applied topically. DTH sensitivity was elicited 5 days later as follows. Mice were challenged with 0.5% OX in acetone/olive oil. The ear was measured immediately before challenge and 24 h later with Mitutoyo engineer's micrometer (Japan). The individual measuring the swelling of the ear was blinded to the identity of the groups of mice. To interfere with DTH response, the low molecular weight immuno-regulatory fractions, diluted in PBS, were administrated subcutaneously into the back of the treated mice at the indicated time schedules and concentrations. Treated mice were inspected during and after (>2 months) the treatment and no major side-effects were observed clinically.
In particular, CD1 mice (available from the Weizmann Institute Animal Breeding Center, Rehovot, Israel), 4-12 mice per group were treated as described in Section 5.2 or 6.8.

For `N[C@H]1C(O)O[C@H](COS(=O)(=O)O)[C@@H](O[C@@H]2OC(C(=O)O)=C[C@H](O)[C@H]2O)[C@@H]1O` (stereo partly drawn) [H-9017, 4-Deoxy-4-en-iduronic acid-(α-1,4)-2-deoxy-6-O-sulfateglucosamine], the “Bioassay of TNF Activity” value [1] was “No effect”, the ““R” value” [1] was 0 % × (pg/ml)^−1 and the ““R” value” ([2]; Table XXIIIA) was 0 % × (μg/gm)^−1. The “effect on DTH (printed in the Dose column)” value (“effect on DTH” for short) ([2]; Table XXIIIA) was “N.E”.
For `O=S(=O)(O)N[C@H]1C(O)O[C@H](CO)[C@@H](O)[C@@H]1OS(=O)(=O)O` (stereo partly drawn) [GlcN-2, 3S, D-Glucosamine-2,3-disulfate, reference compound], the “effective dose range for inhibition ≧50% of control” value [2] was “narrow”.
With `CC(=O)N[C@H]1C(O)O[C@H](COS(=O)(=O)O)[C@@H](O[C@@H]2OC(C(=O)O)=C[C@H](O)[C@H]2OS(=O)(=O)O)[C@@H]1O` (stereo partly drawn) [H-9517, 2-O-sulfate-4-deoxy-4-en-iduronic acid-(α-1,4)-2-deoxy-2-N-acetyl-6-O-sulfateglucosamine] the “Bioassay of TNF Activity” value [1] was “Inconsistent^c”.
`N[C@H]1C(O)O[C@H](CO)[C@@H](O)[C@@H]1OS(=O)(=O)O` (stereo partly drawn) [GlcN-3S, D-Glucosamine-3-sulfate, reference compound] was tested, and the “effect on DTH” value ([2]; Table XXIIIC) was “N.E”.
`O=C(O)C1=C[C@H](O)[C@@H](O)[C@H](O[C@H]2[C@H](O)[C@@H](NS(=O)(=O)O)C(O)O[C@@H]2CO)O1` (stereo partly drawn) [H-1145, 4-deoxy-4-en-iduronic acid-(α-1,4)-2-deoxy-2-N-sulfateglucosamine] was tested, and the ““R” value” ([2]; Table XXIIIA) was 0 % × (μg/gm)^−1 and the “effect on DTH” value ([2]; Table XXIIIA) was “N.E”.
With `O=S(=O)(O)N[C@H]1C(O)O[C@H](CO)[C@@H](O)[C@@H]1O` (stereo partly drawn) [GlcN-2S, D-Glucosamine-2-N-sulfate, reference compound] the ““R” value” ([2]; Table XXIIIC) was 0 % × (μg/gm)^−1 and the “effect on DTH” value ([2]; Table XXIIIC) was “N.E”.
In the case of `NC1C(O)OC(COS(=O)(=O)O)C(OC2OC(C(=O)O)=CC(O)C2OS(=O)(=O)O)C1O` (stereo not drawn) [H-8892, 2-O-sulfate-4-deoxy-4-en-iduronic acid-(α-1,4)-2-deoxy-6-O-sulfateglucosamine], the “Bioassay of TNF Activity” value [1] is reported as “No effect”, the ““R” value” [1] is reported as 0 % × (pg/ml)^−1 and the ““R” value” ([2]; Table XXIIIA) is reported as 0 % × (μg/gm)^−1. For the same compound, the “effect on DTH” value ([2]; Table XXIIIA) was “N.E”.
`CC(=O)N[C@H]1C(O)O[C@H](CO)[C@@H](O)[C@@H]1O` (stereo partly drawn) [NAc-GlcN, N-Acetylglucosamine, reference compound] was tested, and the “effect on DTH” value ([2]; Table XXIIIC) was “N.E”.
With `CC(=O)NC1C(O)OC(COS(=O)(=O)O)C(OC2OC(C(=O)O)=CC(O)C2O)C1O` (stereo not drawn) [H-8642, 4-deoxy-4-en-iduronic acid-(α-1,4)-2-deoxy-2-N-acetyl-6-O-sulfateglucosamine] the “Bioassay of TNF Activity” value [1] was “Inconsistent”, the ““R” value” ([2]; Table XXIIIA) was 0 % × (μg/gm)^−1 and the “effect on DTH” value ([2]; Table XXIIIA) was “N.E”.
`N[C@H]1C(O)O[C@H](CO)[C@@H](O[C@@H]2OC(C(=O)O)=C[C@H](O)[C@H]2OS(=O)(=O)O)[C@@H]1O` (stereo partly drawn) [H-9142, 2-O-sulfate-4-deoxy-4-en-iduronic acid-(α-1,4)-2-deoxyglucosamine] was tested, and the “Bioassay of TNF Activity” value [1] was “Inconsistent”, the ““R” value” ([2]; Table XXIIIA) was 0 % × (μg/gm)^−1 and the “effect on DTH” value ([2]; Table XXIIIA) was “N.E”.
With `N[C@H]1C(O)O[C@H](COS(=O)(=O)O)[C@@H](O)[C@@H]1O` (stereo partly drawn) [GlcN-6S, D-Glucosamine-6-sulfate, reference compound] the “effect on DTH” value ([2]; Table XXIIIC) was “N.E”.
In the case of `O=S(=O)(O)N[C@H]1C(O)O[C@H](COS(=O)(=O)O)[C@@H](O)[C@@H]1O` (stereo partly drawn) [GlcN-2, 6S, D-Glucosamine-2,6-disulfate, reference compound], the “effective dose range for inhibition ≧50% of control” value [2] is reported as “narrow”.
